Experimental data as given in patent US20100212036A1, “SELECTIVE INHIBITION OF HISTONE DEACETYLASES 1 AND 2 AS A TREATMENT FOR CARDIAC HYPERTROPHY” (priority 2008, published 2010).
Values belong to the compound of their own block, whether it stands above or below them.

Experiments:
[1] = test system: cardiomyocytes; settings: treatment of cardiomyocytes with HDAC inhibitors; cited from earlier work
[2] = test system: PPARα-responsive genes; test: Real-time RT-PCR of PPARα target genes in hearts of wild-type and HDAC3cKO mice after Wy14,643; assay type: in vivo; settings: 50 mg/kg single intraperitoneal injection
Protocol: FIGS. 5A-E. Aberrant expression of cardiac metabolism genes from cardiac deletion of HDAC3. (FIG. 5A) Microarray analysis was performed at 5 weeks and gene ontology analysis was performed with PANTHER. […] (FIG. 5B) PPAR-regulated mitochondrial uncoupling genes are increased in HDAC3cKO mice. […] (FIG. 5E) Glucose metabolism is decreased in HDAC3cKO hearts. For (FIGS. 5B-E), real-time RT-PCR was performed from LV RNA of 6-week-old wild-type and HDAC3cKO mice in absence or presence of Wy14,643. Transcript levels were normalized to 18S Ribosomal RNA. KO, HDAC3cKO. Error bars represent standard deviation.
RT-PCR and microarray. For all gene expression analyses from wild-type and HDAC3cKO mice, 4 wild-type and 4 HDAC3cKO hearts were isolated and analyzed. Total RNA was purified using TRIzol reagent according to manufacturer's instructions. For RT-PCR, total RNA was used for reverse transcriptase using random hexamer primers. Primer sequences are available upon request. Quantitative real time PCR was performed using Taqman probes purchased from ABI. For microarray, RNA was extracted from either 3 wild-type or HDAC3cKO hearts and subsequently pooled prior to analysis. Microarray analysis was performed using the Mouse Genome 430 2.0 Array (Affymetrix). All heart RNA was from ventricle tissue only. Microarray analysis was performed by the UT Southwestern Microarray Core Facility using the Mouse Genome 430 2.0 Array (Affymetrix) as described (Davis et al., 2006)
Animal studies. For fasting studies, male HDAC3cKO and wild-type littermates were fasted for 24 hrs. After 24 hrs, mice were sacrificed, hearts extracted, and prepared for Oil Red O staining. Control mice were allowed standard chow ad libitum. Wy14,643 (Biomol) (50 mg/kg body weight) in 50% DMSO/saline was administered as a single intraperitoneal injection. Control littermates were administered vehicle and hearts were extracted 8 hrs after injection. All animal studies were approved by the IACUC of the University of Texas Southwestern Medical Center.

[3] = test system: HDAC3; test: HDAC3 expression in settings of hypertrophy and failure; assay type: in vivo; settings: following infusion; data not shown
[4] = hearts 8 hrs after injection, vs baseline
[5] = HDAC3cKO mice, LV RNA, hearts extracted 8 hrs after injection, vs baseline

Compound: CC(/C=C/C(=O)NO)=C\[C@@H](C)C(=O)c1ccc(N(C)C)cc1 [TSA]
- activation of the fetal gene program [1]: dose-dependentle block activation
- hypertrophic response [1]: block the hypertrophic response

Compound: CCCC(CCC)C(=O)O [VPA]
- activation of the fetal gene program [1]: dose-dependentle block activation
- hypertrophic response [1]: block the hypertrophic response

- ACOX (acyl-CoA oxidase 1) expression ([2]; HDAC3cKO hearts): further up-regulated
Compound: Cc1cccc(Nc2cc(Cl)nc(SCC(=O)O)n2)c1C [Wy14,643]
- CD36 transcript level [2, 4]: up-regulated
- FACS (Acsl1) transcript level [2, 4]: up-regulated
- FATP (Slc27a1) transcript level [2, 4]: up-regulated
- GLUT4 expression ([2]; HDAC3cKO mice): further decreased
- PDK4 expression ([2]; HDAC3cKO mice): further elevated
- UCP2 transcript level [2, 5]: induction was increased
- UCP3 transcript level [2, 5]: induction was increased
- mCPT-1 transcript levels ([2]; wild-type or HDAC3cKO hearts): had no effect

Compound: CC(C)NCC(O)c1ccc(O)c(O)c1 (stereo not drawn) [isoproterenol]
- HDAC3 expression levels [3]: decreased

Compound: angiotensin
- HDAC3 expression levels [3]: not significantly altered
